This passage reports DC50 and Dmax results from patent US20250215012A1, “IKZF2 DEGRADERS AND USES THEREOF” (REGENTS OF THE UNIVERSITY OF MICHIGAN, priority 2022, published 2025).

The assay addresses IKZF2 (Homo sapiens (Human), UniProt Q96SW2+Q9UKS7). The experiment in a line: IKZF2 HiBiT Assay (Jurkat-IKZF2-HiBiT cell line). It is filed as cell-based. The note with it: Jurkat-IKZF2-HiBiT cells, 24 hours; for DC50: read-out: HiBit assay degradation analysis DC50; for Dmax: read-out: HiBit assay degradation analysis Dmax. How it is done: Degradation of IKZF2 protein is determined by IKZF2 HiBiT assay using the Jurkat-IKZF2-HiBiT (Promega) cell line. Briefly, cells are seeded in culture medium. Compounds are serially diluted in culture medium, and certain volume of the diluted compounds is added to the appropriate well of the plate. After the addition of compounds, the cells are incubated. At the end of treatment, Nano-Glo HiBiT Lytic Detection Reagent (Promega) is added to each well, and then the plates are incubated at room temperature for a certain time period. The luminescent signal is measured using a CALRIOstar plate reader (BMG Labtech). The readings are normalized to the DMSO-treated cells and the IC50 is calculated by nonlinear regression (four parameters sigmoid fitted with variable slope, least squares fit, and no constraint) analysis using the GraphPad Prism 8 software.
Degradation of IKZF2 protein was determined by IKZF2 HiBiT assay using the Jurkat-IKZF2-HiBiT (Promega) cell line. […] Compounds were serially diluted in culture medium, and 20 μl of the diluted compounds were added to the appropriate wells of the plate. After the addition of compounds, the cells were incubated at 37° C. in an atmosphere of 5% CO2 for 24 hours. At the end of treatment, 40 ul of Nano-Glo HiBiT Lytic Detection Reagent (Promega) was added to each well, and then the plates were incubated at room temperature for 10-20 minutes. The luminescent signal was measured using a CALRIOstar plate reader (BMG Labtech). The readings were normalized to the DMSO-treated cells and the IC50 was calculated by nonlinear regression (four parameters sigmoid fitted with variable slope, least squares fit, and no constraint) analysis using the GraphPad Prism 8 software.
On the technique in general: The HiBiT peptide binds its large partner to form an active luciferase.

Chain of IKZF2 (Q9UKS7 whole entry): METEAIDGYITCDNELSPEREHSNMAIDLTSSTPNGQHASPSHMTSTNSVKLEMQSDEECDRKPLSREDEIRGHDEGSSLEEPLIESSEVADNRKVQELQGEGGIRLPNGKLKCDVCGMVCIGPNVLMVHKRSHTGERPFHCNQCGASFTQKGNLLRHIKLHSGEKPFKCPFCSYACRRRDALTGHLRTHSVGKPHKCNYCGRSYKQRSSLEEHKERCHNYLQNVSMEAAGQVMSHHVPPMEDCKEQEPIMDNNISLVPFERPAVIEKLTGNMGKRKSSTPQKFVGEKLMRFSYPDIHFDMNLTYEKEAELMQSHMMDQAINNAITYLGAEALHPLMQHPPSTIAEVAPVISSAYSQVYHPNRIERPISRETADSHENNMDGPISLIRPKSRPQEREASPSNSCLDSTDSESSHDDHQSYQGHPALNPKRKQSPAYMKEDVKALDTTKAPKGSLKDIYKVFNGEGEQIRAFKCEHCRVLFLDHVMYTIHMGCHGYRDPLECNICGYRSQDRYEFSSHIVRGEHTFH
Chain of IKZF2 (Q96SW2 whole entry): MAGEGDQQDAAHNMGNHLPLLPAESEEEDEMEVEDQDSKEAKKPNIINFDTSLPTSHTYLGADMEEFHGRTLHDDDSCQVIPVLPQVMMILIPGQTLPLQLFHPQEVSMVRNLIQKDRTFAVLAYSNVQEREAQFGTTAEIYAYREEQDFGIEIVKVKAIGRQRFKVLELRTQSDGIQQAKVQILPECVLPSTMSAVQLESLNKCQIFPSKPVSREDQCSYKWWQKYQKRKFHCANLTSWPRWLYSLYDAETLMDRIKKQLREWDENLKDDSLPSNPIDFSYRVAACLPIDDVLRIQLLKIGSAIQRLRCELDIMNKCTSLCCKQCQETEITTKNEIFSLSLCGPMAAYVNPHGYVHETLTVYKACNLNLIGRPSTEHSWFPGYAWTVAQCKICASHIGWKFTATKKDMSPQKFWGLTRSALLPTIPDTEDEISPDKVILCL
Chain of IKZF2 (Q16531 whole entry partner): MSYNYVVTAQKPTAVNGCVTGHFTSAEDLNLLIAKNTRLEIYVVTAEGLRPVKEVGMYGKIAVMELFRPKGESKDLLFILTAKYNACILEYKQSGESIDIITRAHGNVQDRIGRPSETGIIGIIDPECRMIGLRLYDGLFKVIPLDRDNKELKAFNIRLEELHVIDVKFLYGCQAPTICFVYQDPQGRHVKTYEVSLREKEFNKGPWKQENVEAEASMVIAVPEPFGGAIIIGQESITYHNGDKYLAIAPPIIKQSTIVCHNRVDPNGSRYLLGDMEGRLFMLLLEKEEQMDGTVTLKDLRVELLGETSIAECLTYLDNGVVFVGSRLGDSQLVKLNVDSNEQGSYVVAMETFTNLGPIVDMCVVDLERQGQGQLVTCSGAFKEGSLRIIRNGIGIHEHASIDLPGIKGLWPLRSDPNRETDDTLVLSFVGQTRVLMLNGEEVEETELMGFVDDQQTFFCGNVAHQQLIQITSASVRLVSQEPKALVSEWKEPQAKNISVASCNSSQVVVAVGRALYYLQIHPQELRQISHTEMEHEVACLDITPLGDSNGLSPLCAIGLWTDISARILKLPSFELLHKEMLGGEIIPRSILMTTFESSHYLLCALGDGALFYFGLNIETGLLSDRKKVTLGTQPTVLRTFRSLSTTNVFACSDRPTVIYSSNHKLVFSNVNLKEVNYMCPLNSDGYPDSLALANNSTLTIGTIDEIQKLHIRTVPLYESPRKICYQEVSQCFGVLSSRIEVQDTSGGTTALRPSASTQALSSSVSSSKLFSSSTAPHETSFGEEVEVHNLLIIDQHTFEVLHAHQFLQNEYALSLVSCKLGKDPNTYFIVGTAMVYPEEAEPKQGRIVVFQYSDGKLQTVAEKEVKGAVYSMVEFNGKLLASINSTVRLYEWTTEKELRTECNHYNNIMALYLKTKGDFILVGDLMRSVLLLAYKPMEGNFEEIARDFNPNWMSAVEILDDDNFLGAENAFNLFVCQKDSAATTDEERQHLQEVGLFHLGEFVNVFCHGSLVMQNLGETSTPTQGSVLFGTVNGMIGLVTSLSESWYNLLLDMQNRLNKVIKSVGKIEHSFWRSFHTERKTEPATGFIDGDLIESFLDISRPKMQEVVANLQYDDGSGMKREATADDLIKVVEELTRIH

The term DC50 denotes the midpoint of the concentration-degradation curve. Usually Dmax stands for the greatest extent of degradation seen. In the case of `O=C1CCC(N2Cc3c(ccc4c3OCC43CCN(C[C@H]4C[C@@H]4c4ccccc4)CC3)C2=O)C(=O)N1` (relative stereo) [Compound A180, 3-(6-oxo-1′-((trans-2-phenylcyclopropyl)methyl)-6,8-dihydro-2H,7H-spiro[furo[2,3-e]isoindole-3,4′-piperidin]-7-yl)piperidine-2,6-dione], the 50% degradation concentration (DC50) is more than 500 nM and the greatest degradation seen (Dmax) was less than 40%.

For `O=C1CCC(N2Cc3c(ccc4c3OCCC43CCNCC3)C2=O)C(=O)N1` (stereo not shown) [Compound A2, 3-(7′-oxo-2′,3′,7′,9′-tetrahydro-8′H-spiro[piperidine-4,4′-pyrano[2,3-e]isoindol]-8′-yl)piperidine-2,6-dione], the Dmax is less than 40%.

`O=C1CCC(N2Cc3c(ccc4c3OCC43CCN(Cc4ccc(Cl)cc4F)CC3)C2=O)C(=O)N1` (stereo not shown) [Compound A4, 3-(1′-(4-chloro-2-fluorobenzyl)-6-oxo-6,8-dihydro-2H,7H-spiro[furo[2,3-e]isoindole-3,4′-piperidin]-7-yl)piperidine-2,6-dione]: the DC50 is more than 500 nM and the Dmax was 40 to 60%.

For `O=C1CCC(N2Cc3c(ccc4c3OCC43CCN(Cc4ccc(F)cc4Cl)CC3)C2=O)C(=O)N1` (stereo not shown) [Compound A6, 3-(1′-(2-chloro-4-fluorobenzyl)-6-oxo-6,8-dihydro-2H,7H-spiro[furo[2,3-e]isoindoline-3,4′-piperidin]-7-yl)piperidine-2,6-dione], the DC50 was more than 500 nM and the Dmax was less than 40%.

As for `O=C1CCC(N2Cc3c(ccc4c3OCC43CCN(CC4CCCCC4)CC3)C2=O)C(=O)N1` (stereo not shown) [Compound A7, 3-(1′-(cyclohexylmethyl)-6-oxo-6,8-dihydro-2H,7H-spiro[furo[2,3-e]isoindoline-3,4′-piperidin]-7-yl)piperidine-2,6-dione], the 50% degradation concentration (DC50) was more than 500 nM and the Dmax is less than 40%.

Consider `O=C1CCC(N2Cc3c(ccc4c3OCCC43CCN(Cc4ccc(C(F)F)cc4)CC3)C2=O)C(=O)N1` (stereo not shown) [Compound A9, 3-(1-(4-(difluoromethyl)benzyl)-7′-oxo-2′,3′,7′,9′-tetrahydro-8′H-spiro[piperidine-4,4′-pyrano[2,3-e]isoindol]-8′-yl)piperidine-2,6-dione], for which the DC50 is more than 500 nM and the greatest degradation seen (Dmax) is less than 40%.

With `O=C1CCC(N2Cc3c(ccc4c3OCCC43CCN(Cc4ccc(Cl)cc4F)CC3)C2=O)C(=O)N1` (stereo not shown) [Compound A10, 3-(1-(4-chloro-2-fluorobenzyl)-7′-oxo-2′,3′,7′,9′-tetrahydro-8′H-spiro[piperidine-4,4′-pyrano[2,3-e]isoindol]-8′-yl)piperidine-2,6-dione], the DC50 was more than 500 nM and the Dmax is less than 40%.

As for `O=C1CCC(N2Cc3c(ccc4c3OCCC43CCN(Cc4ccccc4)CC3)C2=O)C(=O)N1` (stereo not shown) [Compound A13, 3-(1-benzyl-7′-oxo-2′,3′,7′,9′-tetrahydro-8′H-spiro[piperidine-4,4′-pyrano[2,3-e]isoindol]-8′-yl)piperidine-2,6-dione], the DC50 was more than 500 nM and the Dmax was less than 40%.

In the case of `O=C1CCC(N2Cc3c(ccc4c3OCCC43CCN(CC4CCCCC4)CC3)C2=O)C(=O)N1` (stereo not shown) [Compound A14, 3-(1-(cyclohexylmethyl)-7′-oxo-2′,3′,7′,9′-tetrahydro-8′H-spiro[piperidine-4,4′-pyrano[2,3-e]isoindol]-8′-yl)piperidine-2,6-dione], the DC50 is more than 500 nM and the Dmax is less than 40%.

On to `CCc1ccc(CN2CCC3(CC2)COc2c3ccc3c2CN(C2CCC(=O)NC2=O)C3=O)cc1` (stereo not shown) [Compound A16, 3-(1′-(4-ethylbenzyl)-6-oxo-6,8-dihydro-2H,7H-spiro[furo[2,3-e]isoindole-3,4′-piperidin]-7-yl)piperidine-2,6-dione], for which the DC50 was more than 500 nM and the Dmax is less than 40%.

As to `O=C1CCC(N2Cc3c(ccc4c3OCC43CCN(CC4CCC(F)(F)CC4)CC3)C2=O)C(=O)N1` (stereo not shown) [Compound A17, 3-(1′-((4,4-difluorocyclohexyl)methyl)-6-oxo-6,8-dihydro-2H,7H-spiro[furo[2,3-e]isoindole-3,4′-piperidin]-7-yl)piperidine-2,6-dione], the DC50 is more than 500 nM and the maximal degradation (Dmax) lay within 40 to 60%.

Take `O=C1CCC(N2Cc3c(ccc4c3OCC43CCN(CC4CCCC4)CC3)C2=O)C(=O)N1` (stereo not shown) [Compound A18, 3-(1′-(cyclopentylmethyl)-6-oxo-6,8-dihydro-2H,7H-spiro[furo[2,3-e]isoindole-3,4′-piperidin]-7-yl)piperidine-2,6-dione]: the DC50 is more than 500 nM and the greatest degradation seen (Dmax) was less than 40%.

Regarding `CC1(C)CCC(CN2CCC3(CC2)COc2c3ccc3c2CN(C2CCC(=O)NC2=O)C3=O)CC1` (stereo not shown) [Compound A19, 3-(1′-((4,4-dimethylcyclohexyl)methyl)-6-oxo-6,8-dihydro-2H,7H-spiro[furo[2,3-e]isoindole-3,4′-piperidin]-7-yl)piperidine-2,6-dione], the half-maximal degradation concentration (DC50) is more than 500 nM and the maximal degradation (Dmax) was less than 40%.

As for `O=C1CCC(N2Cc3c(ccc4c3OCC43CCN(CC4CCOCC4)CC3)C2=O)C(=O)N1` (stereo not shown) [Compound A20, 3-(6-oxo-1′-((tetrahydro-2H-pyran-4-yl)methyl)-6,8-dihydro-2H,7H-spiro[furo[2,3-e]isoindole-3,4′-piperidin]-7-yl)piperidine-2,6-dione], the DC50 is more than 500 nM and the Dmax is less than 40%.

For the compound `O=C1CCC(N2Cc3c(ccc4c3OCC43CCN(CC4CCCc5ccccc54)CC3)C2=O)C(=O)N1` (stereo not shown) [Compound A21, 3-(6-oxo-1′-((1,2,3,4-tetrahydronaphthalen-1-yl)methyl)-6,8-dihydro-2H,7H-spiro[furo[2,3-e]isoindole-3,4′-piperidin]-7-yl)piperidine-2,6-dione], the DC50 is more than 500 nM and the Dmax fell in the range of 60 to 80%.

As for `O=C1CCC(N2Cc3c(ccc4c3OCC43CCN(CC4Cc5ccccc5C4)CC3)C2=O)C(=O)N1` (stereo not shown) [Compound A22, 3-(1′-((2,3-dihydro-1H-inden-2-yl)methyl)-6-oxo-6,8-dihydro-2H,7H-spiro[furo[2,3-e]isoindole-3,4′-piperidin]-7-yl)piperidine-2,6-dione], the DC50 is more than 500 nM and the Dmax was less than 40%.

Take `O=C1CCC(N2Cc3c(ccc4c3OCC43CCN(CC4C5CC6CC(C5)CC4C6)CC3)C2=O)C(=O)N1` (stereo not shown) [Compound A23, 3-(1′-(((1r,3r,5r,7r)-adamantan-2-yl)methyl)-6-oxo-6,8-dihydro-2H,7H-spiro[furo[2,3-e]isoindole-3,4′-piperidin]-7-yl)piperidine-2,6-dione]: the DC50 is more than 500 nM and the Dmax was less than 40%.

Take `O=C1CCC(N2Cc3c(ccc4c3OCC43CCN(CC4CC5CCC4C5)CC3)C2=O)C(=O)N1` (stereo not shown) [Compound A24, 3-(1′-(bicyclo[2.2.1]heptan-2-ylmethyl)-6-oxo-6,8-dihydro-2H,7H-spiro[furo[2,3-e]isoindole-3,4′-piperidin]-7-yl)piperidine-2,6-dione]: the 50% degradation concentration (DC50) was more than 500 nM and the maximal degradation (Dmax) lay in the range of 40 to 60%.

For `O=C1CCC(N2Cc3c(ccc4c3OCC43CCN(Cc4ccc(-c5ccccc5)cc4)CC3)C2=O)C(=O)N1` (stereo not shown) [Compound A25, 3-(1′-([1,1′-biphenyl]-4-ylmethyl)-6-oxo-6,8-dihydro-2H,7H-spiro[furo[2,3-e]isoindole-3,4′-piperidin]-7-yl)piperidine-2,6-dione], the half-maximal degradation concentration (DC50) is more than 500 nM and the Dmax was in the range of 40 to 60%.
